Experimental data as given in the NIST ThermoML archive (doi:10.1021/acs.jced.6b00040).
Numbers after ± are expanded uncertainties.

Conditions: Liquid, Ebulliometric method (Recirculating still)

With `CC(=O)OC(C)C` [1-methylethyl ethanoate] the “vapor or sublimation pressure” value (361.45 K) was 101.3 ± 0.8 kPa.

With `CC(C)O` [propan-2-ol] the “vapor or sublimation pressure” value (355.33 K) was 101.3 ± 0.8 kPa.

For `C[S+](C)[O-]` [dimethyl sulfoxide], the “vapor or sublimation pressure” value (463.38 K) was 101.3 ± 0.8 kPa.
